“Also recorded” adds a separate entry of the source. Blank lines part the entries; values can stand above or below the compound they belong to. Where a SMILES comes first, the peptide text is derived from it. [ ]: non-standard residue; d: D form. The star is where a group is joined. Propanoyl(3-cHex) = O=C(CCC1CCCCC1)*; Orn = NCCC[C@H](N)C(=O)O; Dab = NCC[C@H](N)C(=O)O; Dap = NC[C@H](N)C(=O)O
Tests used:
mNMUR2 = biological target: T1, mNMUR2 (Mus musculus, UniProt Q8BZ39); experiment: In vitro agonist activity for mouse neuromedin U receptor (intracellular calcium, Fluo-4, transfected HEK293 cells); assay type: cell-based; conditions: at a concentration of 100 nM, versus mNMUR1
T1 construct: expressed in transfected cells; host or cells: HEK293 cells (transient transfection with FuGENE6)
Description: For CPN-219 which has been synthesized in Synthesis Example 1, evaluation of the agonist activity for type 1 and type 2 mouse neuromedin U receptor (mNMUR1 and mNMUR2) was carried out according to the following method.
HEK293 cells derived from human embryonic kidney were cultured in a 5% (v/v) CO2 incubator at 37° C. by using DMEM-high glucose (GIBCO (registered trademark), Thermo Fisher Scientific Inc.) medium containing 10% (v/v) FCS.
Cells were sown on a 100 mm dish at 5.0×10^5 cells (10 mL DMEM+10% FBS), and then cultured for 18 hours. After the culture, by using FuGENE6 (Promega Corporation), the cultured cells were transfected with an expression plasmid which encodes mNMUR1 or mNMUR2 (2.5 μg). The cells were cultured for 18 hours. […]
On the next day, 100 μL of Fluo-4 AM (Promega Corporation) solution as a fluorescent indicator of intracellular calcium concentration was added to each well, in which the solution has been prepared such that it has the final concentration of 4 μM in assay buffer (HBSS, 10 mM HEPES, 2.5 mM probenecid, 1% FCS: pH 7.4). After culture for 40 minutes at 37° C., the cells were washed 4 times with the assay buffer and set in a fluorometric imaging plate reader (Molecular Devices, LLC.). […]

ddy male mouse [1] = experiment: Suppression of increase in prolactin concentration in blood under restraint stress; assay type: in vivo; conditions: 200 μg/5 μL intranasal, restraint stress 20 minutes, ELISA
Description: Peptide solution (200 μg/5 μL) or physiological saline (5 μL) was administered to the nasal cavity of a ddY male mouse. After 20 minutes, restraint stress (i.e., addition to the inside of a tube) was applied for 20 minutes and blood was taken by cutting off the animal head. Then, the PLT concentration in plasma was analyzed by using Mouse Prolactin DuoSet ELISA (R&D systems).
Furthermore, for a ddY male mouse which has not been administered with the peptide solution (200 μg/5 μL) or physiological saline (5 μL), and also not applied with any stress, the PLT concentration in plasma was analyzed in the same manner as above.

ddy male mouse [2] = experiment: Suppression of body weight gain and food intake upon intranasal administration to a mouse; assay type: in vivo; conditions: 64 μg or 213 μg once intranasally, Day 1 to 5, versus physiological saline
Description: CPN-219, each dissolved at 64 μg or 213 μg in physiological saline (5 μL), was administered once to the nasal cavity of a ddy male mouse under anesthetization. As a control, physiological saline (5 μL) was administered once to the nasal cavity. For each administration group, the body weight of a mouse and food intake amount were measured immediately before the administration, each of Day 1 to 5 from immediately after the administration.
The body weight of a mouse was 29.0±0.83 g for the group with intranasal administration of 64 μg, or 27.7±1.29 g for the group with intranasal administration of 213 μg.

[3] = Stability in rat plasma (LC/MS); assay type: in vitro ADME; conditions: 37° C.
Description: Peptide solution was added to rat plasma such that the final peptide concentration is 50 μg/mL, and then incubated for arbitrary time period (0.5 to 6 hours) at 37° C. After the arbitrary time period, sampling was carried out and high performance liquid chromatography mass spectrometry (LC/MS) was performed under the following conditions followed by stability analysis.
LC/MS System: LC-MS2020 (SHIMADZU CORPORATION)
Column: TSKgel ODS-100V (Tosoh Corporation, 3.0 μm, 2.0 mm×75 mm)
Mobile layer: 0.1% trifluoroacetic acid (pH 2.5):acetonitrile=2:1
Column temperature: 40° C.
Detection: ESI^+, m/z=425.

hNMUR2 = biological target: T2, hNMUR2 (Homo sapiens, UniProt Q9GZQ4); experiment: In vitro agonist activity for human neuromedin U receptor (intracellular calcium, Fluo-4, CHO cells stably expressing the receptor); assay type: cell-based; conditions: at a concentration of 100 nM; versus hNMUR1; selective = relative agonist activity for NMUR1 18% or less at 1000 nM and for NMUR2 48% or more at 100 nM
T2 construct: expressed in transfected cells
Description: For CPN-219 which has been synthesized in Synthesis Example 1, evaluation of the agonist activity for type 1 and type 2 human neuromedin U receptor (hNMUR1 and hNMUR2) was carried out according to the following method.
CHO cells derived from Chinese hamster ovary which stably express hNMUR1 or hNMUR2 were cultured in a 5% (v/v) CO2 incubator at 37° C. by using MEM alpha (GIBCO (registered trademark), Thermo Fisher Scientific Inc.) medium containing 1 mg/mL G418 (NACALAI TESQUE, INC.), 10% (v/v) fetal bovine serum (FCS) and nucleosides (adenosine 10 mg/L, cytidine 10 mg/L, guanosine 10 mg/L, uridine 10 mg/L, 2′-deoxyadenosine 10 mg/L, 2′-deoxycytidine hydrochloride 11 mg/L, 2′-deoxyguanosine 10 mg/L, thymidine 10 mg/L).
The CHO cells were sown on a 96 well black-walled plate with clear bottom (Iwaki: AGC TECHNO GLASS CO., LTD.) at 2.0×10^4 cells per well (150 μL DMEM+10% (v/v) FBS), and then cultured for 18 hours.
After the culture, 100 μL of Fluo-4 AM (Promega Corporation) solution as a fluorescent indicator of intracellular calcium concentration was added to each well, in which the solution has been prepared such that it has the final concentration of 4 μM in assay buffer (HBSS, 10 mM HEPES, 2.5 mM probenecid, 1% (v/v) FCS: pH 7.4). After culture for 40 minutes at 37° C., the cells were washed 4 times with the assay buffer and set in a fluorometric imaging plate reader (Molecular Devices, LLC.).
The peptide as a test sample was dissolved by using dimethyl sulfoxide (DMSO) such that the stock solution is present at 20 mM, and then it was stored at 4° C. One hour before addition to the cells, by using an assay buffer added with 0.05% (v/v) bovine serum albumin (BSA) and […] Triton (registered trademark) X-100, preparation to arbitrary final concentration was made (10^−12 to 10^−6 M), and the fluorescence based on the activity of recruiting intracellular calcium by the peptide (i.e., agonist activity) was measured by using a fluorometric imaging plate reader.

[4] = Brain delivery upon intranasal administration to a mouse; assay type: in vivo; conditions: ddY male mouse, 200 μg/5 μL intranasal, after 5 minutes; compared to CPN-116
Description: Peptide solution (200 μg/5 μL) was administered to the nasal cavity of a ddY male mouse. After 5 minutes, the animal was sacrificed and the brain tissues were collected. According to the LC/MS analysis, concentration of the peptide in plasma and brain was analyzed, and the ratio of concentration in brain compared to concentration in plasma was analyzed. The LC/MS analysis was carried out under the same conditions as above.

ddy male mouse [5] = experiment: Fluctuation in corticosterone concentration in blood; assay type: in vivo; conditions: 200 μg/5 μL intranasal, after 5 minutes
Description: Peptide solution (200 μg/5 μL) or physiological saline (5 μL) was administered, either intranasally or peritoneally, to a ddY male mouse. After 5 minutes, blood was taken from the caval vein, and corticosterone concentration in plasma was analyzed according to the LC/MS analysis. Furthermore, as a control, without administering the peptide solution (200 μg/5 μL) or physiological saline (5 μL), blood was taken […] from the caval vein, and corticosterone concentration in plasma was analyzed according to the LC/MS analysis. The LC/MS analysis was carried out under the same conditions as above.

[6] = Pharmacokinetics of peptides in rat after administration via jugular vein; assay type: in vivo; conditions: Wistar rat, 500 μg/200 μL via jugular vein, 1 to 240 minutes; compared to CPN-116
Description: The peptide solution (500 μg/200 μL) was administered via jugular vein of a Wistar rat. After arbitrary time period (1 to 240 minutes), blood was taken from the femoral artery which has been subjected to cannulation in advance. According to the LC/MS analysis, pharmacokinetics of the peptide was analyzed. The LC/MS analysis was carried out under the same conditions as above.

[7] = Stability in phosphate buffer solution (HPLC recovery rate); assay type: physicochemical
Description: Peptide solution was prepared (1 mL) by using a 100 mM phosphate buffer solution (pH 7.4) so as to have the final concentration of 1 mM, and then the peptide solution was incubated for arbitrary time period (1 to 72 hours) in a water bath at 37° C. After the arbitrary time period, sampling was carried out and 20 μL of injection into high performance liquid chromatography (HPLC) (column: COSMOSIL (registered trademark) Cholester Packed Column 4.6 mmI.D.×150 mm; gradient: % B 25-35, 30 min [A: H2O-0.1% (v/v) TFA; B: MeCN]; flow rate: 1.0 mL/min; measurement wavelength: 220 nm) was made. Then, by taking the obtained area value as an indicator, the stability was analyzed from the recovery rate (%) of the compound.

[8] = 2 hours, read-out: recovery rate in rat plasma after 2 hours
[9] = 100 mM phosphate buffer solution pH 7.4, 37° C., after 48 hours

T2 sequence (Q9GZQ4 whole entry): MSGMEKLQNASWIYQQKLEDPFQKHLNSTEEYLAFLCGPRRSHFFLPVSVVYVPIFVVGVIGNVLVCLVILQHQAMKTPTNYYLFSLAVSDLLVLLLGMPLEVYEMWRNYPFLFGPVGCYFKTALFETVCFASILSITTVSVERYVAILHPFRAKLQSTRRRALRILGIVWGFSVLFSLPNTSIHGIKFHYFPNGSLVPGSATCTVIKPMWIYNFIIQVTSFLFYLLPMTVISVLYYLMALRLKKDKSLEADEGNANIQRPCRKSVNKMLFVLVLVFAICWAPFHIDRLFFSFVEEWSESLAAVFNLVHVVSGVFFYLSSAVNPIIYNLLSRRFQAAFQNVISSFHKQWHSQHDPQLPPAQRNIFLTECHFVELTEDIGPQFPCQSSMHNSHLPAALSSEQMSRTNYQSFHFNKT
T1 sequence (Q8BZ39 whole entry): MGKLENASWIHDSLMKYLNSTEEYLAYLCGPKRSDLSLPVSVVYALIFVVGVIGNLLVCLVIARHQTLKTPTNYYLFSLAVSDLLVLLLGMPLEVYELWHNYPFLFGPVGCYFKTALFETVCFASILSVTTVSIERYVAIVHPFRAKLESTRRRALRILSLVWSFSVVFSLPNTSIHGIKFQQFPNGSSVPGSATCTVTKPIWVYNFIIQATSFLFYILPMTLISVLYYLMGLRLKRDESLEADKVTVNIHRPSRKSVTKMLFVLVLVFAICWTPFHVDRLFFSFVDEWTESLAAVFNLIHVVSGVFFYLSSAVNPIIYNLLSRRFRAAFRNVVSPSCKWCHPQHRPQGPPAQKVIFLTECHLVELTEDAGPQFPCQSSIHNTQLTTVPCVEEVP

recovery at 2 hours, 50 μg/mL [3, 8]: ≥ 80%
recovery at 6 hours, 50 μg/mL ([3]; 6 hours, read-out: recovery rate in rat plasma after 6 hours): ≥ 60%
Compound: CC(C)C[C@H](NC(=O)CCC1CCCCC1)C(=O)N[C@@H](CC(C)C)C(=O)N[C@@H](CCN)C(=O)N1CCC[C@H]1C(=O)N[C@@H](CCCNC(=N)N)C(=O)N[C@@H](CC(N)=O)C(N)=O [CPN-219, 3-Cyclohexylpropionyl-Leu-Leu-Dbu-Pro-Arg-Asn-NH2] ({Propanoyl(3-cHex)}-LL[Dab]PRN-NH2)
mNMUR2 selective agonist activity (mNMUR2): exhibited the mNMUR2 selective agonist activity
prolactin secretion (PLT concentration in plasma) (ddy male mouse [1]): suppresses the prolactin secretion
body weight gain of a mouse (ddy male mouse [2]): significantly suppressed the body weight gain
food intake of a mouse (ddy male mouse [2]): significantly suppressed
hNMUR2 selective agonist activity (hNMUR2): exhibited the NMUR2 selective agonist activity
brain delivery (ratio of concentration in brain to concentration in plasma; transfer to olfactory bulb) [4]: more favorable transfer to an olfactory bulb
corticosterone concentration in blood (ddy male mouse [5]): significantly increased the corticosterone concentration in blood
pharmacokinetics in rat blood [6]: more favorable pharmacokinetics in rat blood

recovery at 2 h, 50 μg/mL [3, 8]: ≤ 3%
converted to CPN-220 in phosphate buffer solution [7, 9]: ≥ 70%
chemical stability (in words) ([7]; 100 mM phosphate buffer solution, conclusion from Test Examples 11 and 12): chemically unstable
Compound: CC(C)C[C@H](NC(=O)CCC1CCCCC1)C(=O)N[C@@H](CC(C)C)C(=O)N[C@@H](CN)C(=O)N1CCC[C@H]1C(=O)N[C@@H](CCCNC(=N)N)C(=O)N[C@@H](CC(N)=O)C(N)=O [CPN-116, 3-Cyclohexylpropionyl-Leu-Leu-Dpr-Pro-Arg-Asn-NH2] ({Propanoyl(3-cHex)}-LL[Dap]PRN-NH2)

Compound: 3-Cyclohexylpropionyl-Leu-Leu-Orn-Pro-Arg-Asn-NH2 ({Propanoyl(3-cHex)}-LL[Orn]PRN-NH2; SMILES CC(C)C[C@H](NC(=O)CCC1CCCCC1)C(=O)N[C@@H](CC(C)C)C(=O)N[C@@H](CCCN)C(=O)N1CCC[C@H]1C(=O)N[C@@H](CCCNC(=N)N)C(=O)N[C@@H](CC(N)=O)C(N)=O) [CPN-221]
hNMUR2 selective agonist activity (hNMUR2): exhibited the hNMUR2 selective agonist activity

Compound: 3-Cyclohexylpropionyl-Leu-Leu-Dpr-Pro-Arg-Asn-NH2 ({Propanoyl(3-cHex)}-LL[Dap]PRN-NH2) [CPN-220]
hNMUR2 selective agonist activity (hNMUR2): did not exhibit the hNMUR2 selective agonist activity; also recorded: does not show the hNMUR2 selective agonist activity
converted to CPN-116 in phosphate buffer solution [7, 9]: ≥ 25%

Reference: patent US10550153B2, “Peptide or pharmaceutically acceptable salt thereof, or prodrug thereof” (Tokyo University of Pharmacy & Life Sciences, priority 2017, dated 2020)
